Test results as given in patent US7186743B2, “Substituted pyrazolyl compounds for the treatment of inflammation” (Pharmacia Corporation, priority 2001, dated 2007).
Structures can show the parent of a compound that is named as a salt. Where two headings read alike, the source gives them in different places.

How the values were obtained:
IKK2 = target: T1, IKK2 (Homo sapiens, UniProt O14920); experiment: IKKβ Resin Enzyme Assay (IKK2 resin); assay type: biochemical
T1 construct: made in house; host or cells: insect cells (baculovirus, pFastBac; SF9)
T1 sequence (O14920 1-756): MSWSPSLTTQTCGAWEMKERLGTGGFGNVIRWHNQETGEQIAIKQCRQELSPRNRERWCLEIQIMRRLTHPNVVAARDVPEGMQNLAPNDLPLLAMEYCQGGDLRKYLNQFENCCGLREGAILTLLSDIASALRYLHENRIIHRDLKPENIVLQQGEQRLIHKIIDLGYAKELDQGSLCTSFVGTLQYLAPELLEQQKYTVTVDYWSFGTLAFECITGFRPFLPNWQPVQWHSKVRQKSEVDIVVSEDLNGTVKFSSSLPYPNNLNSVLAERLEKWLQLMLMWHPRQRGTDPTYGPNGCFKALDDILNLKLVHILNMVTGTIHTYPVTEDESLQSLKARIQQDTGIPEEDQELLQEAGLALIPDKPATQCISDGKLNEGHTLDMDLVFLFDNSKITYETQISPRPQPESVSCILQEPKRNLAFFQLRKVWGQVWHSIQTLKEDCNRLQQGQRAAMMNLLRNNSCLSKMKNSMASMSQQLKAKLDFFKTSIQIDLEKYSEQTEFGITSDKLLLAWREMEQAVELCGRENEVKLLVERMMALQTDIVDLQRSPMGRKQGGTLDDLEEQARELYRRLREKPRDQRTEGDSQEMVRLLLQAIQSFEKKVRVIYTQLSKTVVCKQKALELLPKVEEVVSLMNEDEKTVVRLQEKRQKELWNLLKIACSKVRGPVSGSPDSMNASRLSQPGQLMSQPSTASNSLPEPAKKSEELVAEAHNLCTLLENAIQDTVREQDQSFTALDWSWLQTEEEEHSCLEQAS
Summary of the method: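 Enzyme: human IKK2 with a C-terminal FLAG tag, baculovirus-expressed, purified as homodimer on anti-FLAG resin. It phosphorylates a biotinylated IκBα peptide with 1 μM ATP plus [γ-33P]ATP in 25 mM Hepes pH 7.6, Mg/Mn, for 30 min at 25° C. Incorporation is counted by scintillation after anion-exchange resin stop.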

[1] = Table 7, read-out: IKK2 Resin IC50
[2] = Table 5, read-out: IKK2 Resin Avg. IC50

SMILES	melting point	IC50 (IKK2; [1])	IC50 (IKK2; [2])	IC50 (IKK2; Table 4, read-out: IKK2 Resin IC50)
Cc1cc(N2CCOCC2)ncc1C(=O)Nc1ccc2c(c1)-c1c(c(C(N)=O)nn1-c1ccc(F)cc1)CC2 [Example 247, 1-(4-fluorophenyl)-8-{[(4-methyl-6-morpholin-4-ylpyridin-3-yl)carbonyl]amino}-4,5-dihydro-1H-benzo[g]indazole-3-carboxamide]	301 °C (dec.)	≤ 1000 nM		
Cc1cc(Cl)ncc1C(=O)Nc1ccc2c(c1)-c1c(c(C(N)=O)nn1-c1ccc(F)cc1)CC2 [Example 246, 8-{[(6-chloro-4-methylpyridin-3-yl)carbonyl]amino}-1-(4-fluorophenyl)-4,5-dihydro-1H-benzo[g]indazole-3-carboxamide]	280 to 284 °C	≤ 1000 nM		
NC(=O)c1nn(-c2ccc(F)cc2)c2c1CCc1ccc(NC(=O)c3cccnc3N3CCNCC3)cc1-2 [Example 245, 1-(4-fluorophenyl)-8-{[(2-piperazin-1-ylpyridin-3-yl)carbonyl]amino}-4,5-dihydro-1H-benzo[g]indazole-3-carboxamide]	156 to 157 °C	≤ 1000 nM		
CN1CCN(c2cc(C(=O)Nc3ccc4c(c3)-c3c(c(C(N)=O)nn3-c3ccc5c(c3)OCO5)CC4)c(Cl)cn2)CC1 [Example 214, 1-(1,3-benzodioxol-5-yl)-8-{[5-chloro-2-(4-methylpiperazin-1-yl)isonicotinoyl]amino}-4,5-dihydro-1H-benzo[g]indazole-3-carboxamide]	305 to 307 °C			
NC(=O)c1nn(-c2ccc(F)cc2)c2c1CCc1ccc(NC(=O)c3cc(N4CCOCC4)ncc3Cl)cc1-2 [Example 249, 8-[(5-chloro-2-morpholin-4-ylisonicotinoyl)amino]-1-(4-fluorophenyl)-4,5-dihydro-1H-benzo[g]indazole-3-carboxamide]	309 to 313 °C	≤ 1000 nM		
COc1ccc(CNc2ncccc2C(=O)Nc2ccc3c(c2)-c2c(c(C(N)=O)nn2-c2ccc4c(c2)OCO4)CC3)cc1 [Example 209, 1-(1,3-benzodioxol-5-yl)-8-[({2-[(4-methoxybenzyl)amino]pyridin-3-yl}carbonyl)amino]-4,5-dihydro-1H-benzo[g]indazole-3-carboxamide]	181 to 182 °C			
NC(=O)c1nn(-c2ccc3c(c2)OCO3)c2c1CCc1ccc(NC(=O)c3cc(Cl)ncc3Cl)cc1-2 [Example 211, 1-(1,3-benzodioxol-5-yl)-8-[(2,5-dichloroisonicotinoyl)amino]-4,5-dihydro-1H-benzo[g]indazole-3-carboxamide]	292 to 293 °C			
NC(=O)c1nn(-c2ccc3c(c2)OCO3)c2c1CCc1ccc(NC(=O)c3cc(N4CCOCC4)ncc3Cl)cc1-2 [Example 212, 1-(1,3-benzodioxol-5-yl)-8-[(5-chloro-2-morpholin-4-ylisonicotinoyl)amino]-4,5-dihydro-1H-benzo[g]indazole-3-carboxamide]	269 to 271 °C		≤ 1000 nM	
CNc1ncccc1C(=O)Nc1ccc2c(c1)-c1c(c(C(N)=O)nn1-c1ccc3c(c1)OCO3)CC2 [Example 207, 1-(1,3-benzodioxol-5-yl)-8-({[2-(methylamino)pyridin-3-yl]carbonyl}amino)-4,5-dihydro-1H-benzo[g]indazole-3-carboxamide]	273 to 275 °C		≤ 1000 nM	
NC(=O)c1nn(-c2ccc3c(c2)OCO3)c2c1CCc1ccc(NC(=O)c3cccnc3NCCO)cc1-2 [Example 208, 1-(1,3-benzodioxol-5-yl)-8-[({2-[(2-hydroxyethyl)amino]pyridin-3-yl}carbonyl)amino]-4,5-dihydro-1H-benzo[g]indazole-3-carboxamide]	250 to 253 °C		≤ 1000 nM	
NC(=O)c1nn(-c2ccc3c(c2)OCO3)c2c1CCc1ccc(NC(=O)c3nc(Cl)ccc3Cl)cc1-2 [Example 216, 1-(1,3-benzodioxol-5-yl)-8-{[(3,6-dichloropyridin-2-yl)carbonyl]amino}-4,5-dihydro-1H-benzo[g]indazole-3-carboxamide]	263 to 265 °C			
NC(=O)c1nn(-c2ccc3c(c2)OCO3)c2c1CCc1ccc(NC(=O)c3nc(N4CCOCC4)ccc3Cl)cc1-2 [Example 219, 1-(1,3-benzodioxol-5-yl)-8-{[(3-chloro-6-morpholin-4-ylpyridin-2-yl)carbonyl]amino}-4,5-dihydro-1H-benzo[g]indazole-3-carboxamide]	260 to 262 °C (dec.)		≤ 1000 nM	
NC(=O)c1nn(-c2ccc(F)cc2)c2c1CCc1ccc(NC(=O)c3nc(N4CCOCC4)ccc3Cl)cc1-2 [Example 255, 8-{[(3-chloro-6-morpholin-4-ylpyridin-2-yl)carbonyl]amino}-1-(4-fluorophenyl)-4,5-dihydro-1H-benzo[g]indazole-3-carboxamide]	252 to 254 °C	≤ 1000 nM		
CN1CCN(c2cc(C(=O)Nc3ccc4c(c3)-c3c(c(C(N)=O)nn3-c3ccc(F)cc3)CC4)ccn2)CC1 [Example 251, 1-(4-fluorophenyl)-8-{[2-(4-methylpiperazin-1-yl)isonicotinoyl]amino}-4,5-dihydro-1H-benzo[g]indazole-3-carboxamide]	277 to 279 °C	≤ 1000 nM		
CNc1ccc(Cl)c(C(=O)Nc2ccc3c(c2)-c2c(c(C(N)=O)nn2-c2ccc4c(c2)OCO4)CC3)n1 [Example 220, 1-(1,3-benzodioxol-5-yl)-8-({[3-chloro-6-(methylamino)pyridin-2-yl]carbonyl}amino)-4,5-dihydro-1H-benzo[g]indazole-3-carboxamide]	269 to 270 °C (dec.)		≤ 1000 nM	
NC(=O)c1nn(-c2ccc3c(c2)OCO3)c2c1CCc1ccc(NC(=O)c3cccnc3Cl)cc1-2 [Example 161, 1-(1,3-benzodioxol-5-yl)-8-{[(2-chloropyridin-3-yl)carbonyl]amino}-4,5-dihydro-1H-benzo[g]indazole-3-carboxamide]	165 to 166 °C			≤ 1000 nM
CN1CCN(c2ccc(Cl)c(C(=O)Nc3ccc4c(c3)-c3c(c(C(N)=O)nn3-c3ccc(F)cc3)CC4)n2)CC1 (as salt: salt) [Example 256, 8-({[3-chloro-6-(4-methylpiperazin-1-yl)pyridin-2-yl]carbonyl}amino)-1-(4-fluorophenyl)-4,5-dihydro-1H-benzo[g]indazole-3-carboxamide]	218 to 220 °C			
CN1CCN(c2ccc(Cl)c(C(=O)Nc3ccc4c(c3)-c3c(c(C(N)=O)nn3-c3ccc5c(c3)OCO5)CC4)n2)CC1 (as salt: salt) [Example 217, 1-(1,3-benzodioxol-5-yl)-8-({[3-chloro-6-(4-methylpiperazin-1-yl)pyridin-2-yl]carbonyl}amino)-4,5-dihydro-1H-benzo[g]indazole-3-carboxamide]	264 to 266 °C (dec.)			
NC(=O)c1nn(-c2ccc3c(c2)OCO3)c2c1CCc1ccc(NC(=O)c3cccnc3N)cc1-2 [Example 210, 8-{[(2-aminopyridin-3-yl)carbonyl]amino}-1-(1,3-benzodioxol-5-yl)-4,5-dihydro-1H-benzo[g]indazole-3-carboxamide]	265 to 267 °C			
